How the values were obtained:
PDE7A = PDE7A (Homo sapiens, UniProt Q13946); assay: 5FOA growth assay in fission yeast strain expressing PDE7A; format: cell-based; set-up: targets used in the assays are full-length proteins (as opposed to simply the catalytic domain); expressed in transfected cells; host or cells: Schizosaccharomyces pombe, PDE gene integrated in place of cgs2; conditions: high throughput 5FOA growth screen
Protocol: PDE inhibition allows growth in 5FOA medium as measured by optical density after 48 hours incubation at 30° C. Compound BC12 and six structural analogs were tested for growth stimulation.
(§1) Cells were pregrown in EMM medium [MP Biomedicals (Solon, Ohio), 3% glucose, filter-sterilized to avoid carmelization, which would introduce variability into the optical density of the medium] containing from 0 mM to 2.5 mM cAMP (or either 0.5 mM or 1.0 mM cGMP). This was to repress expression of the fbp1-ura4 reporter prior to exposure of cells to 5FOA medium. Cells were grown at 30° C. to exponential phase (approximately 10^7 cells/ml). Cells were collected by centrifugation and resuspended in 5FOA medium, and 25 μl were transferred to 384-well microtiter dishes (untreated, with flat clear bottoms) that had been pre-filled with 25 μl 5FOA medium and pre-pinned with 100 nl of compounds (stock solutions were generally 10 mM). Starting cell concentrations ranged from 0.5×10^5 to 4×10^5 cells/ml depending on the screening strain. […] Other positive control dishes contained 5 mM cAMP in the 5FOA medium for PDEs that lack appropriate control compounds. Cultures were grown for 48 hours at 30° C., sealed in an airtight container with moist paper towels to prevent evaporation. Optical densities (OD600) of cultures were measured using a microplate reader. Bioinformatic analysis of the results to determine composite Z scores was performed as previously described (1, 3).

PDE4A1 = target: T1, PDE4A1 (Mus musculus, UniProt O89084); assay: 5FOA growth assay (high throughput screen, ED50) in fission yeast strain expressing PDE4A1; format: cell-based; conditions: high throughput 5FOA growth screen; greater than 8.53 = statistically-significant inhibitor
T1 construct: targets used in the assays are full-length proteins (as opposed to simply the catalytic domain); expressed in transfected cells; host or cells: Schizosaccharomyces pombe, PDE gene integrated in place of cgs2
T1 sequence (O89084 1-610 isoform O89084-2): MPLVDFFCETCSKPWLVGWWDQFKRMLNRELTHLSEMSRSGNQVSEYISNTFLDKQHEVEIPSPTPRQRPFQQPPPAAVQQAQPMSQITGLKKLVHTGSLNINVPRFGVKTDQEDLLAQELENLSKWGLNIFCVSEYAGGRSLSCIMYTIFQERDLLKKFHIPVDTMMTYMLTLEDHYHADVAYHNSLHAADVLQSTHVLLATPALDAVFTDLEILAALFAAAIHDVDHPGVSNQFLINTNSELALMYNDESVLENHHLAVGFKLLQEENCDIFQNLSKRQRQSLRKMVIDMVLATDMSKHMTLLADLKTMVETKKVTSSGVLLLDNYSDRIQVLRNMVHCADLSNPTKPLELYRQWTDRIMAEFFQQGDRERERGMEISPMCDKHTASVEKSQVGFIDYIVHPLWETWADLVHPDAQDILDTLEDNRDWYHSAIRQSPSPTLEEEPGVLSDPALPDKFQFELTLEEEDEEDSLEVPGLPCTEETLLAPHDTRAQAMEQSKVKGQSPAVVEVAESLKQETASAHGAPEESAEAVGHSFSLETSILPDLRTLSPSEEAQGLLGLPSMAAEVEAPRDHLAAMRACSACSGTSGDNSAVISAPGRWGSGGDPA
Protocol: (§2) High throughput drug screens were carried out at the Broad Institute's Chemical Biology Program screening facility (Broad Institute, Cambridge, Mass.). Depending upon the strain, cultures were pregrown to exponential phase in EMM complete medium containing from 0.5 to 2.5 mM cAMP to repress fbp1-ura4 transcription. […] Starting cell concentrations ranged from 0.5×10^5 to 4×10^5 cells/ml depending on the screening strain. […] Other positive control dishes contained 5 mM cAMP in the 5FOA medium. Cultures were grown for 48 hours at 30° C., sealed in an airtight container with moist paper towels to prevent evaporation. Optical densities (OD600) of cultures were measured using a microplate reader. Bioinformatic analysis of the results to determine composite Z scores was performed as previously described^30, 31.
(§3) To determine whether the 5FOA growth phenotype could be exploited for high throughput drug screening, strains expressing PDE2A, PDE4A, PDE4B, or PDE8A were pre-grown in EMM medium containing cAMP and then transferred to 5FOA medium in 384 well microtiter plates in the presence or absence of cAMP. OD600 measurements were taken after 48 hours incubation at 30° C.
as §1, with “Cells were collected by centrifugation and resuspended in 5FOA medium, and 25 μl were transferred to 384-well microtiter dishes (untreated, with flat clear bottoms) that had been pre-filled with 25 μl 5FOA medium and pre-pinned with 100 nl of compounds (stock solutions were generally 10 mM).” left out

PDE4B3 = target: T2, PDE4B3 (Mus musculus, UniProt Q8VBU5); assay: 5FOA growth assay in fission yeast strain expressing PDE4B3; format: cell-based, Murine; conditions: high throughput 5FOA growth screen
T2 construct: targets used in the assays are full-length proteins (as opposed to simply the catalytic domain); expressed in transfected cells; host or cells: Schizosaccharomyces pombe, PDE gene integrated in place of cgs2
T2 sequence (Q8VBU5 1-721): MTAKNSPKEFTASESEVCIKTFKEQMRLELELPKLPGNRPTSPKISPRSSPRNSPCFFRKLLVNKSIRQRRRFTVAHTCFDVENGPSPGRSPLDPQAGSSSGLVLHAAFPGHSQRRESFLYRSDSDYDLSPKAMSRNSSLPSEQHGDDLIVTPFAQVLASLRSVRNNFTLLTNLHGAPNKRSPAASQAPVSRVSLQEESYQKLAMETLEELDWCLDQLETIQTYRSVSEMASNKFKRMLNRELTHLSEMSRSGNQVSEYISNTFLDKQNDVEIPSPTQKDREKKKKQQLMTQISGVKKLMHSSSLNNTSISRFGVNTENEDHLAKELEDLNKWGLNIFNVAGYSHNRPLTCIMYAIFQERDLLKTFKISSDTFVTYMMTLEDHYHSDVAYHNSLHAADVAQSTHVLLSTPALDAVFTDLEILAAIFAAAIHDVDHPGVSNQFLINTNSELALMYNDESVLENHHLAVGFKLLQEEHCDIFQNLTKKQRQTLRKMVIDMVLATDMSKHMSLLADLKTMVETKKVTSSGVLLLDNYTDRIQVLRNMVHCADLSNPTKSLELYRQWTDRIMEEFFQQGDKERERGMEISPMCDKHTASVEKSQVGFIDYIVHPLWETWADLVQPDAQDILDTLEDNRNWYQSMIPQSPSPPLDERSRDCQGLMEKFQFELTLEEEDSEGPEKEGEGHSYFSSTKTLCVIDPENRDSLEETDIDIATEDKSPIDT
Protocol: as §2, §3
as §1, with “Cells were collected by centrifugation and resuspended in 5FOA medium, and 25 μl were transferred to 384-well microtiter dishes (untreated, with flat clear bottoms) that had been pre-filled with 25 μl 5FOA medium and pre-pinned with 100 nl of compounds (stock solutions were generally 10 mM).” left out

PDE7A, sequence (Q13946 whole entry, the tested form may be a part): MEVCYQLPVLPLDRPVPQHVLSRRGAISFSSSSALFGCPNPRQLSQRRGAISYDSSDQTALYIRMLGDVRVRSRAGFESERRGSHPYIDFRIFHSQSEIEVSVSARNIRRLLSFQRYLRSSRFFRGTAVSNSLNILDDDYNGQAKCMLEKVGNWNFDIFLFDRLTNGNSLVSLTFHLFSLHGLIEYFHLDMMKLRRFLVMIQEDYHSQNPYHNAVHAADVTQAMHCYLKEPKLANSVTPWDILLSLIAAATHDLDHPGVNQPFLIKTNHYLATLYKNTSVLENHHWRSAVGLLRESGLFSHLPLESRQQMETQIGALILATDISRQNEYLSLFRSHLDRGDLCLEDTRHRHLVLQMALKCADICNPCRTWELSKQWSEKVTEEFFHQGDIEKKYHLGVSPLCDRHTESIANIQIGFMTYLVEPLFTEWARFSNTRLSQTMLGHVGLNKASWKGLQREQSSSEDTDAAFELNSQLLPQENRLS

Row | Compound | Composite Z score, PDE7A (PDE7A) | Composite Z score, PDE4A1 (PDE4A1) | Composite Z score, PDE4B3 (PDE4B3)
1 | c1nc(NC2CCCC2)c2c3c(sc2n1)CCC3 [2084 E21] | 18.891 | 29.047 | 0.593
2 | CCN1CCN(c2nc(C)nc3sc4c(c23)CCC4)CC1 [Compound 1414C06] |  | 1.6242 | 0.632
3 | COc1ccc(C(=O)Nc2ncnc3sc4c(c23)CCCC4)cc1OC [Compound 1414F18] |  | 9.1375 | −0.382
4 | Cc1nc(N2CCCN(C)CC2)c2c3c(sc2n1)CCC3 [Compound 1415C05] |  | 0.327 | 0.6059
5 | COc1ccccc1C(=O)Nc1ncnc2sc3c(c12)CCCC3 [Compound 1415M01] |  | 1.7784 | 1.1976
6 | c1nc(N2CCCCC2)c2c3c(sc2n1)CCC3 [Compound 1421A20] |  | 4.6254 | 4.7765
7 | Cc1nc(N2CC(C)OC(C)C2)c2c3c(sc2n1)CCC3 (stereo not shown) [Compound 1421B05] |  | 2.1932 | 5.4669
8 | CCC(CO)Nc1nc(C)nc2sc3c(c12)CCC3 (stereo not shown) [Compound 1422J17] |  | 0.1866 | −0.936
9 | COc1ccc(CCNc2ncnc3sc(C)c(C)c23)cc1OC [Compound 1423F01] |  | 0.9043 | 4.2065
10 | c1cncc(CNc2ncnc3sc4c(c23)CCCC4)c1 [Compound 1423I22] |  | 1.7161 | 0.501
11 | Cc1nc(N2CCC(C)CC2)c2c(C)c(C(=O)N3CCOCC3)sc2n1 [Compound 1424A12] |  | 2.2036 | −2.898
12 | Cc1nc(N2CCOCC2)c2c(C)c(C(=O)Nc3cccc(Cl)c3C)sc2n1 [Compound 1424K08] |  | 3.4896 | 21.717
13 | CC1CCc2c(sc3ncnc(NCCN4CCOCC4)c23)C1 (stereo not shown) [Compound 1425N16] |  | 0.4867 | −1.074
14 | Cc1sc2ncnc(NCc3ccc4c(c3)OCO4)c2c1C [Compound 1426A15] |  | 1.5745 | 0.9419
15 | Cc1sc2ncnc(NC3CCN(Cc4ccccc4)CC3)c2c1C [Compound 1426C09] |  | −0.147 | −0.516
16 | Cc1sc2ncnc(NCCc3ccc4c(c3)OCCO4)c2c1C [Compound 1426G17] |  | 10.127 | 25.393
17 | Cc1nc(NCc2ccco2)c2c3c(sc2n1)CCC3 [Compound 1426I13] |  | −0.033 | −0.071
18 | CCC(CO)Nc1nc(C)nc2sc3c(c12)CCCC3 (stereo not shown) [Compound 1426O11] |  | 0.4682 | 0.0693
19 | C=CCNc1ncnc2sc3c(c12)CCCC3 [Compound 1435C20] |  | 8.4736 | 31.009
20 | CCOC(=O)CSc1nc(NC)c2c3c(sc2n1)CCCC3 [Compound 1439B09] |  | 0.5702 | 1.2391
21 | CC1CCc2c(sc3nc(SCC(N)=O)nc(NCc4ccccc4)c23)C1 (stereo not shown) [Compound 1439G17] |  | 6.7542 | 47.874
22 | c1ccc(CN2CCN(c3ncnc4sc5c(c34)CCCCC5)CC2)cc1 [Compound 2074A07] | 0.7527 | −0.348 | 0.8366
23 | Cc1sc2ncnc(N3CCN(c4cccc(C(F)(F)F)c4)CC3)c2c1C [Compound 2074G03] | −1.925 | 11.67 | −1.188
24 | c1ccc(CNc2ncnc3sc4c(c23)CCCC4)cc1 [Compound 2077J03] | 1.1908 | 1.1575 | 1.9013
25 | CC(C)CNc1ncnc2sc3c(c12)CCCC3 [Compound 2077P12] | 17.695 | 1.6797 | 9.3964
26 | Cc1sc2ncnc(NCc3cccnc3)c2c1C [Compound 2081F17] | 0.439 | 0.1374 | 1.6993
